Results taken from patent US20100267732A1, “Prognostic Molecular Markers for ET-743 Treatment” (PHARMA MAR, S.A., priority 2007, published 2010).

Assays:
sarcoma [1] = test: Clinical outcome of sarcoma patients treated with ET-743 (Example 2, 168 patients; by XPG SNP Asp1104His genotype, XPG mRNA, XPG protein); format: in vivo, human; design: surviving patients at two years after treatment / Tumor Control Rate (CR+PR+MR+SD≧6 mo) / patients achieving progression free survival ≧6 months (PFS6) / survival at 12 months / rate of survival after 2 years: concentration or dose not given beside the values
Experimental: In this study, 168 paraffin embedded tumor samples from sarcoma patients before the treatment with any chemotherapy agent have been evaluated.
(§1) The majority of patients were treated before with one or several chemotherapy agents and later they followed a treatment with ET-743. The dosage of intravenous infusion (IV) of ET-743 given to the different patients was within the range of 1.650-1.0 mg/m^2; the schedules were 24 hours or 3 hour IV infusion with a three week interval between cycles; and the number of cycles ranged from 1 up to 44 cycles in some patients.
The clinical data from the patients was collected in the clinical data collection form and matched with the molecular data (Table 5)
A total of 168 paraffin embedded tumor samples providing evaluable results for at least one of the biomarkers (XPGmRNA, XPG protein, XPGAsp1104His or BRCA 1 mRNA) were analysed.

sarcoma [2] = test: Clinical outcome of sarcoma patients treated with ET-743 (Example 1, 160 patients; by XPG mRNA, XPG protein, BRCA1 mRNA); format: in vivo, human; design: Tumor Control Rate (CR+PR+MR+SD 6 mo) / patients achieving progression free survival 6 months (PFS6) / survival at 12 months: concentration or dose not given beside the values
Experimental: In this study, 160 paraffin embedded tumor samples from sarcoma patients before the treatment with any chemotherapy agent have been evaluated.
as §1
The clinical data from the patients was collected in the clinical data collection form and matched with the molecular data after completion of the mRNA and protein expression levels determination (Table 1).
SAS v8.2 (statistical software) was used for all the statistical analysis. The statistical techniques for univariate, bivariate and multivariate variables were chosen, according with the nature of variables that will be analysed, i.e. when the dependent variable is a temporal variable with censor status the Cox regression would be applied, when correlation between variables will be computed the Pearson and/or Spearman measures would be used. P-values below 0.05 will be considered statistically significant in all tests, when appropriate 95% confidence intervals will be presented too.
A total of 160 paraffin embedded tumor samples providing evaluable results for mRNA or protein expression were analysed. […] These samples came from sarcoma patients before being treated with a chemotherapy agent.

[3] = whole cohort, 51 patients still censored
[4] = whole cohort, Kaplan-Meier (FIG. 8)
[5] = high vs low XPG mRNA subpopulation
[6] = high vs low XPG protein subpopulation
[7] = intermediate subpopulation (high BRCA1 and high XPG, or low BRCA1 and low XPG)

Compound: COc1cc2c(cc1O)CCN[C@]21CS[C@@H]2c3c(OC(C)=O)c(C)c4c(c3[C@H](COC1=O)N1[C@@H]2[C@H]2c3c(cc(C)c(OC)c3O)C[C@@H]([C@@H]1O)N2C)OCO4 [ET-743, ecteinascidin 743]
- Minor Responses (MR) (sarcoma [1]; 147 evaluable patients): 6.8%
- Tumor Control Rate (CR+PR+MR+SD≧6 mo) (sarcoma [1]; 147 evaluable patients): 44.9%
- overall response rate (RR), Complete+Partial Responses (sarcoma [1]; 147 evaluable patients): 15.6%
- patients achieving progression free survival ≧6 months (PFS6) (sarcoma [1]; 147 evaluable patients): 39.5%
- Median PFS (sarcoma [1]; Asp/Asp XPG (W), XPG mRNA < 1.55): 1.8 months
- Median PFS (sarcoma [1]; Asp/Asp XPG (W), XPG protein 0 + 1): 2.9 months
- Median PFS (sarcoma [1]; Asp/His + His/His XPG (H + M), XPG mRNA < 1.55): 3.3 months
- Median PFS (sarcoma [1]; Asp/His + His/His XPG (H + M), XPG protein 0 + 1): 3.3 months
- Median OS (sarcoma [1]; H + M, XPG mRNA < 1.55): 9.0 months
- OS at 12 months (sarcoma [1]; H + M, XPG mRNA < 1.55): 39.1%
- PFS at 6 months (sarcoma [1]; H + M, XPG mRNA < 1.55): 31.3%
- Median OS (sarcoma [1]; H + M, XPG mRNA >= 1.55): 5.0 months
- Median PFS (sarcoma [1]; H + M, XPG mRNA >= 1.55): 2.9 months
- OS at 12 months (sarcoma [1]; H + M, XPG mRNA >= 1.55): 36.9%
- PFS at 6 months (sarcoma [1]; H + M, XPG mRNA >= 1.55): 15.4%
- Median OS (sarcoma [1]; H + M, XPG protein 0 + 1): 6.2 months
- OS at 12 months (sarcoma [1]; H + M, XPG protein 0 + 1): 23.7%
- OS at 24 months (sarcoma [1]; H + M, XPG protein 0 + 1): 0%
- PFS at 6 months (sarcoma [1]; H + M, XPG protein 0 + 1): 26.3%
- Median OS (sarcoma [1]; H + M, XPG protein 2 + 3): 12.2 months
- Median PFS (sarcoma [1]; H + M, XPG protein 2 + 3): 3.4 months
- OS at 12 months (sarcoma [1]; H + M, XPG protein 2 + 3): 52.6%
- OS at 24 months (sarcoma [1]; H + M, XPG protein 2 + 3): 0%
- PFS at 6 months (sarcoma [1]; H + M, XPG protein 2 + 3): 27.3%
- rate of survival after 2 years (sarcoma [1]; M+H genotype and high XPG mRNA expression): 0%
- rate of survival after 2 years (sarcoma [1]; M+H genotype and low XPG mRNA expression): 39.1%
- rate of survival after 2 years (sarcoma [1]; W genotype and high XPG mRNA expression): 66.9%
- rate of survival after 2 years (sarcoma [1]; W genotype and low XPG mRNA expression): 28.9%
- Median OS (sarcoma [1]; W, XPG mRNA < 1.55): 8.6 months
- OS at 12 months (sarcoma [1]; W, XPG mRNA < 1.55): 28.9%
- PFS at 6 months (sarcoma [1]; W, XPG mRNA < 1.55): 26.3%
- Median OS (sarcoma [1]; W, XPG mRNA >= 1.55): 27.7 months
- Median PFS (sarcoma [1]; W, XPG mRNA >= 1.55): 17.1 months
- OS at 12 months (sarcoma [1]; W, XPG mRNA >= 1.55): 83.7%
- PFS at 6 months (sarcoma [1]; W, XPG mRNA >= 1.55): 82.4%
- Median OS (sarcoma [1]; W, XPG protein 0 + 1): 11.7 months
- OS at 12 months (sarcoma [1]; W, XPG protein 0 + 1): 47.1%
- OS at 24 months (sarcoma [1]; W, XPG protein 0 + 1): 40.4%
- PFS at 6 months (sarcoma [1]; W, XPG protein 0 + 1): 44.0%
- Median OS (sarcoma [1]; W, XPG protein 2 + 3): 27.7 months
- Median PFS (sarcoma [1]; W, XPG protein 2 + 3): 8.0 months
- OS at 12 months (sarcoma [1]; W, XPG protein 2 + 3): 90.0%
- OS at 24 months (sarcoma [1]; W, XPG protein 2 + 3): 90.0%
- PFS at 6 months (sarcoma [1]; W, XPG protein 2 + 3): 77.1%
- Median PFS (KM) (sarcoma [1]; genotype H): 3.4 months
- Median Survival (KM) (sarcoma [1]; genotype H): 6.9 months
- PFS6 (KM) (sarcoma [1]; genotype H): 34.6%
- survival at 12 months (sarcoma [1]; genotype H): 34.6%
- CR + PR + MR + SD ≧ 6 (sarcoma [1]; genotype M): 0
- Median PFS (KM) (sarcoma [1]; genotype M): 1.6 months
- Median Survival (KM) (sarcoma [1]; genotype M): 9.1 months
- PFS6 (KM) (sarcoma [1]; genotype M): 0%
- survival at 12 months (sarcoma [1]; genotype M): 31.3%
- Median PFS (KM) (sarcoma [1]; genotype W): 6.4 months
- Median Survival (KM) (sarcoma [1]; genotype W): 19.9 months
- PFS6 (KM) (sarcoma [1]; genotype W): 50.8%
- survival at 12 months (sarcoma [1]; genotype W): 54%
- median duration of the response (CR+PR+MR) (sarcoma [1]; whole cohort): 7.83 months
- Median Survival (sarcoma [1]; [3]): 9.6 months
- surviving patients at two years after treatment (sarcoma [1]; whole cohort, Kaplan-Meier): 34.0%
- Median Survival (sarcoma [1]; [4]): 15.4 months
- PFS6 rate (sarcoma [1]; [4]): 40.2%
- median progression free survival (sarcoma [1]; [4]): 3.4 months
- Minor Responses (MR) (sarcoma [2]; 140 evaluable patients): 7.1%
- Tumor Control Rate (CR+PR+MR+SD 6 mo) (sarcoma [2]; 140 evaluable patients): 47.1%
- overall response rate (RR), Complete+Partial Responses (sarcoma [2]; 140 evaluable patients): 16.4%
- patients achieving progression free survival 6 months (PFS6) (sarcoma [2]; 140 evaluable patients): 41.4%
- CR + PR + MR + SD > 6 (sarcoma [2]; High BRCA1, High XPG): 11/26 (42%)
- Median PFS (sarcoma [2]; High BRCA1, High XPG): 2.5 m
- Median Survival (sarcoma [2]; High BRCA1, High XPG): 13.6 m
- PFS 6 (sarcoma [2]; High BRCA1, High XPG): 38.5%
- PFS > 6 Months rate (sarcoma [2]; High BRCA1, High XPG): 9/26 (35%)
- CR + PR + MR + SD > 6 (sarcoma [2]; High BRCA1, Low XPG): 4/20 (20%)
- Median PFS (sarcoma [2]; High BRCA1, Low XPG): 2.5 m
- Median Survival (sarcoma [2]; High BRCA1, Low XPG): 6.6 m
- PFS 6 (sarcoma [2]; High BRCA1, Low XPG): 22.2%
- PFS > 6 Months rate (sarcoma [2]; High BRCA1, Low XPG): 4/21 (19%)
- CR + PR (sarcoma [2]; High BRCA1 mRNA, High XPG mRNA): 5/26 (19%)
- CR + PR (sarcoma [2]; High BRCA1 mRNA, Low XPG mRNA): 0/20 (0%)
- CR + PR + MR + SD > 6 (sarcoma [2]; Low BRCA1, High XPG): 12/19 (63%)
- Median PFS (sarcoma [2]; Low BRCA1, High XPG): 7.3 m
- Median Survival (sarcoma [2]; Low BRCA1, High XPG): 15.4 m
- PFS 6 (sarcoma [2]; Low BRCA1, High XPG): 55.7%
- PFS > 6 Months rate (sarcoma [2]; Low BRCA1, High XPG): 10/21 (48%)
- CR + PR + MR + SD > 6 (sarcoma [2]; Low BRCA1, Low XPG): 14/31 (45%)
- Median PFS (sarcoma [2]; Low BRCA1, Low XPG): 3.4 m
- Median Survival (sarcoma [2]; Low BRCA1, Low XPG): 11.7 m
- PFS 6 (sarcoma [2]; Low BRCA1, Low XPG): 35.5%
- PFS > 6 Months rate (sarcoma [2]; Low BRCA1, Low XPG): 12/27 (61%)
- CR + PR (sarcoma [2]; Low BRCA1 mRNA, High XPG mRNA): 3/19 (16%)
- CR + PR (sarcoma [2]; Low BRCA1 mRNA, Low XPG mRNA): 6/31 (19%)
- CR + PR (sarcoma [2]; XPG mRNA < 1.55): 6/59 (10%)
- CR + PR + MR + SD ≧ 6 (sarcoma [2]; XPG mRNA < 1.55): 21/59 (36%)
- Median PFS (KM) (sarcoma [2]; XPG mRNA < 1.55): 2.5 m
- Median Survival (KM) (sarcoma [2]; XPG mRNA < 1.55): 9.3 m
- PFS6 (KM) (sarcoma [2]; XPG mRNA < 1.55): 29.5%
- PFS ≧ 6 Months rate (sarcoma [2]; XPG mRNA < 1.55): 18/60 (30%)
- CR + PR (sarcoma [2]; XPG mRNA ≧ 1.55): 11/57 (19%)
- CR + PR + MR + SD ≧ 6 (sarcoma [2]; XPG mRNA ≧ 1.55): 32/57 (56%)
- Median PFS (KM) (sarcoma [2]; XPG mRNA ≧ 1.55): 7.1 m
- Median Survival (KM) (sarcoma [2]; XPG mRNA ≧ 1.55): 19.1 m
- PFS6 (KM) (sarcoma [2]; XPG mRNA ≧ 1.55): 52.1%
- PFS ≧ 6 Months rate (sarcoma [2]; XPG mRNA ≧ 1.55): 28/59 (47.5%)
- CR + PR + MR + SD ≧ 6 (sarcoma [2]; XPG protein 0 + 1): 27/64 (42%)
- Median PFS (KM) (sarcoma [2]; XPG protein 0 + 1): 3.7 m
- Median Survival (KM) (sarcoma [2]; XPG protein 0 + 1): 11.7 m
- PFS6 (KM) (sarcoma [2]; XPG protein 0 + 1): 39.9%
- PFS ≧ 6 Months (sarcoma [2]; XPG protein 0 + 1): 26/64 (39%)
- CR + PR + MR + SD ≧ 6 (sarcoma [2]; XPG protein 2 + 3): 15/25 (60%)
- Median PFS (KM) (sarcoma [2]; XPG protein 2 + 3): 7.1 m
- Median Survival (KM) (sarcoma [2]; XPG protein 2 + 3): 27.7 m
- PFS6 (KM) (sarcoma [2]; XPG protein 2 + 3): 55.6%
- PFS ≧ 6 Months (sarcoma [2]; XPG protein 2 + 3): 13/25 (50%)
- CR + PR (sarcoma [2]; XPG protein IHC score 0 + 1): 8/64 (13%)
- CR + PR (sarcoma [2]; XPG protein IHC score 2 + 3): 6/25 (24%)
- survival at 12 months (sarcoma [2]; high XPG expression (protein analysis, FIG. 5)): 73.7%
- survival at 12 months (sarcoma [2]; high XPG mRNA expression): 61.9%
- fold increase in objective response (sarcoma [2]; [5]): 1.9 fold
- fold increase in tumor control rate (sarcoma [2]; [5]): 1.6 fold
- fold increase in objective response (sarcoma [2]; [6]): 1.85 fold
- fold increase in tumor control rate (sarcoma [2]; [6]): 1.43 fold
- Median OS (sarcoma [2]; [7]): 13.6 months
- Median PFS (sarcoma [2]; [7]): 2.8 months
- PFS6 rate (sarcoma [2]; [7]): 36.6%
- survival at 12 months (sarcoma [2]; low XPG mRNA expression): 46.2%
- survival at 12 months (sarcoma [2]; low XPG protein expression): 45.5%
- median duration of the response (CR+PR+MR) (sarcoma [2]; whole cohort): 7.83 months
- Median Survival (sarcoma [2]; [3]): 10 months
- Median Survival (sarcoma [2]; whole cohort, Kaplan-Meier): 17.7 months
- PFS6 rate (sarcoma [2]; whole cohort, Kaplan-Meier): 42.1%
- median progression free survival (sarcoma [2]; whole cohort, Kaplan-Meier): 3.8 months
